Measurements as given in PubChem BioAssay AID330 (DTP/NCI, 2004).
Several values for one entry are separate records, joined by “and”; a condition that tells them apart may be missing. Identical values can stand only once. Inconclusive results and toxic doses are left out. Rule for the calls: active = survival T/C of 150% or more; inactive = T/C below 125% in these data.

Tested on: P388 leukemia ip, CD2F1 mice, survival T/C
Assay: NCI In Vivo Anticancer Drug Screen. Data for tumor model P388 Leukemia (intraperitoneal) in CD2F1 (CDF1) mice
Conditions: endpoint: median survival time, higher = longer survival
Method in brief: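 Mice carrying the transplanted tumor received test compound or vehicle. Survival was recorded in each group, and the value is the treated-group measurement divided by that of the vehicle-treated control group.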

[1] = dose: 50.0 mg/kg/injection, schedule: Q01DX005 (ip), vehicle: saline with Tween-80
[2] = dose: 100.0 mg/kg/injection, schedule: Q01DX005 (ip), vehicle: saline with Tween-80
[3] = dose: 12.5 mg/kg/injection, schedule: Q01DX009 (ip), vehicle: Klucel (hydroxypropylcellulose) (HPC)
[4] = dose: 25.0 mg/kg/injection, schedule: Q01DX009 (ip), vehicle: Klucel (hydroxypropylcellulose) (HPC)
[5] = dose: 50.0 mg/kg/injection, schedule: Q01DX009 (ip), vehicle: Klucel (hydroxypropylcellulose) (HPC)
[6] = dose: 100.0 mg/kg/injection, schedule: Q01DX009 (ip), vehicle: Klucel (hydroxypropylcellulose) (HPC)
[7] = dose: 200.0 mg/kg/injection, schedule: Q01DX009 (ip), vehicle: Klucel (hydroxypropylcellulose) (HPC)
[8] = dose: 200.0 mg/kg/injection, schedule: Q01DX005 (ip), vehicle: saline with Tween-80
[9] = dose: 60.0 mg/kg/injection, schedule: Q01DX005 (ip), vehicle: saline with Tween-80
[10] = dose: 120.0 mg/kg/injection, schedule: Q01DX005 (ip), vehicle: saline with Tween-80
[11] = dose: 240.0 mg/kg/injection, schedule: Q01DX005 (ip), vehicle: saline with Tween-80
[12] = dose: 100.0 mg/kg/injection, schedule: Q01DX009 (ip), vehicle: saline
[13] = dose: 200.0 mg/kg/injection, schedule: Q01DX009 (ip), vehicle: saline
[14] = dose: 12.5 mg/kg/injection, schedule: Q01DX005 (ip), vehicle: saline with Tween-80
[15] = dose: 25.0 mg/kg/injection, schedule: Q01DX005 (ip), vehicle: saline with Tween-80
[16] = dose: 50.0 mg/kg/injection, schedule: Q01DX009 (ip), vehicle: saline with Tween-80
[17] = dose: 15.0 mg/kg/injection, schedule: Q01DX005 (ip), vehicle: saline with Tween-80
[18] = dose: 30.0 mg/kg/injection, schedule: Q01DX005 (ip), vehicle: saline with Tween-80

Measured: T/C

CCOC(=O)/C=C/C(F)(F)C(F)(F)C(F)(F)C(F)(F)C(F)(F)C(F)(F)C(F)(F)F
inactive: dose: 100.0 mg/kg/injection, schedule: Q04DX003 (ip), vehicle: saline 100 % of control | dose: 200.0 mg/kg/injection, schedule: Q04DX003 (ip), vehicle: saline 100 % of control | dose: 400.0 mg/kg/injection, schedule: Q04DX003 (ip), vehicle: saline 100 % of control

Cc1ncc2c(n1)CCC1=C2OS(=O)(=O)CC1N(C)C (centres undefined)
inactive: [1] 115 % of control | [2] 97 % of control

CP1(=S)C=C(NC2CCCCC2)CC1 (centres undefined)
inactive: [3] 99 % of control | [4] 107 % of control | [5] 110 % of control | [6] 92 % of control | [7] 95 % of control

CC12C(=O)OC(=O)C1(O)C1c3ccccc3C2c2ccccc21 (centres undefined)
inactive: dose: 50.0 mg/kg/injection, schedule: Q01DX005 (ip), vehicle: Klucel (hydroxypropylcellulose) (HPC) 101 % of control | dose: 100.0 mg/kg/injection, schedule: Q01DX005 (ip), vehicle: Klucel (hydroxypropylcellulose) (HPC) 101 % of control | dose: 200.0 mg/kg/injection, schedule: Q01DX005 (ip), vehicle: Klucel (hydroxypropylcellulose) (HPC) 101 % of control

CC(C)NC(=O)OCC#CCOC(=O)NC(C)C
inactive: [1] 98 % of control | [2] 90 % of control | [8] 90 % of control

CC1(C)OC(=O)ON(C(c2ccccc2)c2ccccc2)C1=O
inactive: [9] 101 % of control | [10] 108 % of control

CC1CC(c2ccccc2Cl)C(c2ccccc2)C(=O)O1 (centres undefined)
inactive: dose: 100.0 mg/kg/injection, schedule: Q04DX003 (ip), vehicle: Klucel (hydroxypropylcellulose) (HPC) 100 % of control | dose: 200.0 mg/kg/injection, schedule: Q04DX003 (ip), vehicle: Klucel (hydroxypropylcellulose) (HPC) 106 % of control | dose: 400.0 mg/kg/injection, schedule: Q04DX003 (ip), vehicle: Klucel (hydroxypropylcellulose) (HPC) 108 % of control

O=C(NCCCCCCNC(=O)C1CCCN1)C1CCCN1 (centres undefined)
inactive: dose: 15.0 mg/kg/injection, schedule: Q01DX005 (ip), vehicle: saline 103 % of control | dose: 30.0 mg/kg/injection, schedule: Q01DX005 (ip), vehicle: saline 96 % of control | dose: 60.0 mg/kg/injection, schedule: Q01DX005 (ip), vehicle: saline 100 % of control and 97 % of control

CCCN1C(=O)CC(c2ccc(OC)c(OC)c2)C1=O (centres undefined)
inactive: [9] 90 % of control | [10] 90 % of control | [11] 90 % of control

Brc1cc(Br)c2ccccc2c1OCC1CO1 (centres undefined)
inactive: [3] 106 % of control and 95 % of control | [4] 106 % of control | [5] 88 % of control and 89 % of control and 95 % of control | [7] 91 % of control

COc1ccc2c3c(cnc2c1)P(C)(=O)CC3 (centres undefined)
inactive: dose: 50.0 mg/kg/injection, schedule: Q01DX009 (ip), vehicle: saline 101 % of control | [12] 96 % of control | [13] 102 % of control

Cc1c(=O)n(C)c2ccccc2[n+]1[O-]
inactive: [9] 96 % of control | [10] 93 % of control | [11] 100 % of control

COc1ccc(S(=O)(=O)NNS(=O)(=O)c2ccc(OC)c(OC)c2)cc1OC
inactive: [14] 95 % of control | [15] 99 % of control | [1] 94 % of control and 96 % of control

COc1cc2c(cc1OC)-c1c3c(cc4c1[C@@H](C2)N(C)CC4)OCO3
inactive: dose: 12.5 mg/kg/injection, schedule: Q01DX009 (ip), vehicle: distilled water + Tween-80 107 % of control | dose: 12.5 mg/kg/injection, schedule: Q01DX009 (ip), vehicle: saline with Tween-80 106 % of control | dose: 25.0 mg/kg/injection, schedule: Q01DX009 (ip), vehicle: distilled water + Tween-80 107 % of control | dose: 25.0 mg/kg/injection, schedule: Q01DX009 (ip), vehicle: saline with Tween-80 100 % of control | dose: 50.0 mg/kg/injection, schedule: Q01DX009 (ip), vehicle: distilled water + Tween-80 116 % of control | [16] 102 % of control

COc1ccc2c(c1)C(O)(CN)CCCCC(OC)CCCC2 (centres undefined)
inactive: dose: 7.5 mg/kg/injection, schedule: Q01DX005 (ip), vehicle: saline with Tween-80 100 % of control | [17] 101 % of control | [18] 99 % of control | [9] 101 % of control

CCOC(=O)c1ccc(NCCC(C)=O)cc1
inactive: [16] 91 % of control | dose: 100.0 mg/kg/injection, schedule: Q01DX009 (ip), vehicle: saline with Tween-80 86 % of control | dose: 200.0 mg/kg/injection, schedule: Q01DX009 (ip), vehicle: saline with Tween-80 91 % of control | dose: 400.0 mg/kg/injection, schedule: Q01DX009 (ip), vehicle: saline with Tween-80 95 % of control

CC1=C(C(=O)CC(=O)C(=O)Nc2ccc(C)cc2C)Sc2ccccc2N1
inactive: [9] 104 % of control | [10] 101 % of control | [11] 94 % of control

O=c1cc[nH]c(=O)[nH]1
inactive: dose: 32.0 mg/kg/injection, schedule: Q01DX009 (ip), vehicle: Klucel (hydroxypropylcellulose) (HPC) 99 % of control and 106 % of control | dose: 32.0 mg/kg/injection, schedule: Q01DX009 (ip), vehicle: saline with Tween-80 114 % of control | dose: 64.0 mg/kg/injection, schedule: Q01DX009 (ip), vehicle: Klucel (hydroxypropylcellulose) (HPC) 98 % of control and 100 % of control | dose: 64.0 mg/kg/injection, schedule: Q01DX009 (ip), vehicle: saline with Tween-80 100 % of control | [12] 98 % of control | dose: 128.0 mg/kg/injection, schedule: Q01DX009 (ip), vehicle: Klucel (hydroxypropylcellulose) (HPC) 99 % of control and 102 % of control | dose: 128.0 mg/kg/injection, schedule: Q01DX009 (ip), vehicle: saline with Tween-80 95 % of control | [13] 100 % of control | dose: 256.0 mg/kg/injection, schedule: Q01DX009 (ip), vehicle: Klucel (hydroxypropylcellulose) (HPC) 100 % of control and 109 % of control | dose: 256.0 mg/kg/injection, schedule: Q01DX009 (ip), vehicle: saline with Tween-80 100 % of control | dose: 400.0 mg/kg/injection, schedule: Q01DX009 (ip), vehicle: saline 102 % of control | dose: 512.0 mg/kg/injection, schedule: Q01DX009 (ip), vehicle: Klucel (hydroxypropylcellulose) (HPC) 108 % of control and 109 % of control | dose: 512.0 mg/kg/injection, schedule: Q01DX009 (ip), vehicle: saline with Tween-80 97 % of control

CC1=CC(=C2C(=O)c3ccccc3C2=O)C=C(C)N1CCNCCO
inactive: dose: 60.0 mg/kg/injection, schedule: Q01DX005 (ip), vehicle: Klucel (hydroxypropylcellulose) (HPC) 99 % of control | dose: 120.0 mg/kg/injection, schedule: Q01DX005 (ip), vehicle: Klucel (hydroxypropylcellulose) (HPC) 90 % of control | dose: 240.0 mg/kg/injection, schedule: Q01DX005 (ip), vehicle: Klucel (hydroxypropylcellulose) (HPC) 93 % of control

CCOC(=O)Cc1ccc(-c2cn3c(n2)sc2ccccc23)cc1
inactive: [5] 112 % of control | [6] 103 % of control | [7] 100 % of control

CN1C(=O)n2c(nc3ccccc32)C(N=[N+]=[N-])(N=[N+]=[N-])C1=O (centres undefined)
inactive: [17] 108 % of control | [18] 101 % of control | [9] 101 % of control and 110 % of control

COc1ccc2nc(N/N=C/c3cccc(C)n3)cc(C)c2c1
inactive: [14] 100 % of control | [15] 96 % of control | [1] 94 % of control and 95 % of control | [2] 114 % of control | [8] 116 % of control
